{"source": "PubChem BioAssay AID1349", "about": "(Sanford-Burnham Center for Chemical Genomics, 2008)", "note": "Activity calls are given as the source filed them.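 How the source made its calls: active means survival above the stress-only control level plus 20 points, here above 50%; inactive means the rest.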"}
{"test_system": "CSM14.1 tunicamycin-induced death, Annexin V/PI flow, 72 h", "experiment": "tunicamycin ER stress death protection – cell-based, undifferentiated CSM14.1, flow cytometry, orthogonal assay for ER stress death inhibitor project, SAR follow-up (AID 1349)", "conditions": "at 25 µM; hits give high values"}
{"smiles": "COc1ccc(C2CC(=O)C3=C(C2)Nc2ccccc2NC3c2ccccc2C(F)(F)F)cc1OC", "note": "(stereo unspecified)", "survival": "65%"}
{"smiles": "O=C1CC(c2ccccc2)CC2=C1C(c1c(F)cccc1Cl)Nc1ccccc1N2", "note": "(stereo unspecified)", "survival": "58%"}
{"smiles": "COc1ccc(C2CC(=O)C3=C(C2)Nc2ccccc2NC3c2cccc(C(F)(F)F)c2)cc1OC", "note": "(stereo unspecified)", "survival": "82%"}
{"smiles": "COc1ccc(C2CC(=O)C3=C(C2)Nc2ccccc2NC3c2cccc(Br)c2)cc1OC", "note": "(stereo unspecified)", "survival": "67%"}
{"smiles": "CCOc1cc(C2Nc3ccccc3NC3=C2C(=O)CC(c2ccc(OC)cc2)C3)cc(Cl)c1O", "note": "(stereo unspecified)", "survival": "52%"}
{"smiles": "CC1(C)CC(=O)C2=C(C1)Nc1ccccc1NC2c1ccc(-c2ccccc2)cc1", "note": "(stereo unspecified)", "survival": "92%"}
{"smiles": "CSc1ccc(C2Nc3ccccc3NC3=C2C(=O)CC(c2ccccc2)C3)cc1", "note": "(stereo unspecified)", "survival": "62%"}
{"smiles": "CCCOc1ccc(C2Nc3ccccc3NC3=C2C(=O)CC(c2ccc(OC)c(OC)c2)C3)cc1", "note": "(stereo unspecified)", "survival": "74%"}
{"smiles": "COc1ccc(C2CC(=O)C3=C(C2)Nc2ccccc2NC3c2cccc(Oc3ccccc3)c2)cc1OC", "note": "(stereo unspecified)", "survival": "54%"}
{"smiles": "COc1ccc(C2CC(=O)C3=C(C2)Nc2ccccc2NC3c2cc(C)ccc2C)cc1", "note": "(stereo unspecified)", "survival": "70%"}
{"smiles": "CCOc1cccc(C2Nc3ccccc3NC3=C2C(=O)CC(c2ccc(OC)cc2)C3)c1", "note": "(stereo unspecified)", "survival": "49% (inactive)"}
